From patent publication US10138282B2, “Peptide antagonist of LL-37” (INDIANA UNIVERSITY RESEARCH AND TECHNOLOGY CORPORATION, priority 2014, dated 2018)
“Also recorded” adds a separate entry of the source.

Legend:
[1] = in vitro; assay type: cell-based; conditions: human, Half-life of LL-37 in cells
Experimental: Acidification of endosomes can activate cathepsins that can cleave TLR3, 7, and 9 and increase signaling. We examined whether LL-37 would be subject to proteolysis, possibly by cathepsins. BEAS-2B cells were treated with LL-37 in the absence or presence of poly(I:C) for 15 min, then washed with phosphate-buffered saline and incubated with fresh medium. The cells were harvested over time, lysed and subjected to Western blot analysis. LL-37 accumulation decreased over time, with an estimated half-life of 1 h (FIG. 4A, 4B). Cells treated with ammonium chloride or the cathepsin inhibitor Z-FA-FMK had half-lives in excess of 12 h (FIG. 4A, 4B).

[2] = tested on: TLR3 signaling; assay: IL-6 production (ELISA) in BEAS-2B cells induced with poly(I:C); assay type: cell-based, human
Experimental: (§1) IL-6 production was quantified by ELISA using the OptEIA™ kit (BD Biosciences). A typical assay used 2×10^4 BEAS-2B cells/well grown for 24 h in flat bottom 96-well plates. Poly(I:C) was added to a final concentration of 0.13 μg/ml. Antimicrobial peptides were added to the cell culture medium to a final concentration of 3 μM unless specified otherwise. All ELISA results shown were performed in triplicate and in at least three independent experiments.
(§2) To better define how residues in LL-37 contribute to function, several variants derived from LL-37 were tested for: 1) repression of TLR4 signaling by LPS, 2) enhancement of TLR3 signaling by poly(I:C), and 3) binding to LL-37. Signaling by TLR3 and TLR4 were monitored using ELISA to detect IL-6 secreted into the medium of BEAS-2B cells.

[3] = tested on: Reovirus dsRNA, Reo S4; assay: IL-6 production in BEAS-2B cells in the presence of Reovirus dsRNA Reo S4; assay type: cell-based, human
Experimental: as §1
Herein, we analyzed the LL-37 orthologs from Rhesus monkeys, pig, sheep, guinea pigs, rabbit, as well as mouse (FIG. 14A). All peptides were chemically synthesized and assayed for the induction of inflammatory cytokine IL-6 in the presence of the double-stranded RNA mimic, poly(I:C) or the Reovirus dsRNA, Reo S4 (FIGS. 14B and 14C). […] Importantly, all LL-37 orthologs tested had the ability to reduce IL-6 production in response to LPS (FIG. 14E).

[4] = tested on: Toll-like receptor 9; assay: IL-6 production in BEAS-2B cells in the presence of ssDNA ligand ODN; assay type: cell-based, human
[5] = target: T1, f-LL37 (Homo sapiens, UniProt P49913); assay: Fluorescence polarization, interaction of peptides with fluorescein-labeled LL-37; assay type: binding
T1 sequence (P49913 134-170 limits assumed): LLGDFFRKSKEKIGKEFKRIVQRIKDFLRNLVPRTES
Experimental: (§3) Peptide binding to poly(I:C) was analyzed by monitoring fluorescence polarization using the Synergy H1 microplate reader (BioTek). Fluorescein-labeled LL-37 was titrated to a 100 μL solution containing poly(I:C) and phosphate buffers at different pHs. Interactions between LL-37 and other peptides were analyzed using LL-37 labeled at the N-terminus with fluorescein (0.1 μM), and peptides were titrated from 1 nM to 1000 nM in phosphate buffer at pH 7.0. Interaction between poly(I:C) and different peptides was determined by titrating fluorescein-labeled poly(I:C) (0.1 μM) with peptides added to final concentrations of 10 to 500 nM in phosphate buffer at pH 7.4. All polarization assays were performed in triplicate.

[6] = tested on: Escherichia coli ATCC 25922; assay: MIC assay, broth microdilution (CLSI); assay type: cell-based; conditions: E. coli ATCC 25922
Experimental: MIC assays were performed according to protocols for broth microdilution according to the Clinical Laboratory Standards Institute (CLSI, 2015. Methods for Dilution Antimicrobial susceptibility tests for bacterial that grow aerobically; Approved standard—tenth edition).

[7] = Dynamic light scatter spectroscopy, hydrodynamic radius; assay type: physicochemical
Experimental: The hydrodynamic radii of LL-37 and other peptides were monitored by a Zetasizer Nano-S instrument (Malvern Instruments). All measurements were taken with 1 μM of peptide dissolved in phosphate buffer adjusted to the desired pH at 22° C.

[8] = tested on: TLR4 signaling; assay: IL-6 production (ELISA) in BEAS-2B cells induced with LPS; assay type: cell-based, human
Experimental: as §1, §2

[9] = target: T2, FPRL-1 receptor (Homo sapiens, UniProt P25090); assay: IL-6 production in BEAS-2B cells knocked down with siRNA (FPRL-1, EGFR, control); assay type: cell-based
T2 construct: a human lung epithelial cell line that expresses endogenous FPRL-1; endogenous in cells; host or cells: BEAS-2B
T2 sequence (P25090 1-351): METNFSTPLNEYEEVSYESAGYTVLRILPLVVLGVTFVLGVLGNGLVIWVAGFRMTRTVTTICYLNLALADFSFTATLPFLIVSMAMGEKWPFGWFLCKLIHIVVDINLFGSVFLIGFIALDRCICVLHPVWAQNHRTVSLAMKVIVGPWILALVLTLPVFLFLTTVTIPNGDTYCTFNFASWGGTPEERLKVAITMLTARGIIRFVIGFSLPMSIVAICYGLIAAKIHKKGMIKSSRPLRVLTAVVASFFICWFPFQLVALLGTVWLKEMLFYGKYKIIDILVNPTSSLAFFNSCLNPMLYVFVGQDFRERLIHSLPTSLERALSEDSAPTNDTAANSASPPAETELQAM
Experimental: BEAS-2B cells were seeded at 2×10^6 cells per 6-well plate for 6 h prior to transfection with 30 nM of a pool of three siRNAs from Santa Cruz Biotechnology. Transfections were done using Lipofectamine 2000.
Cells were grown on poly-L-lysine (Life Technologies). The level of target mRNA was analyzed using qRT-PCR and normalized to the levels of GAPDH mRNA. The sequences of the primers will be made available upon request. Poly(I:C) was added 48 h after siRNA transfection and IL-6 levels in the culture media were collected 24 h later.
LL-37's enhancement of TLR3 signaling required trafficking of LL-37/poly(:C) to endosomes via the FPRL-1 receptor. Therefore, we examined whether LL-29 used the FPRL-1 receptor to enter cells. siRNA was used to knock down the expression of either FPRL-1, EGFR, or TLR3. […] Co-localization of fLL-37 and rpIC was reduced to less than a third of the control. […] Knockdowns performed with siRNAs to either a nonspecific control or EGFR had no effect on the enhancement of IL-6 production.
Will LL-29 affect the use of the FPRL-1 receptor by the LL-37/poly(I:C) complex? BEAS-2B cells knocked down for FPRL-1 were treated with LL-37 along with additional concentrations of LL-37, Pentamide, LL-29, Peptide A, or LL8-37 (FIG. 6C). Signaling by TLR3 was determined by the amount of IL-6 secreted in the cell culture media. A control siRNA had no effect on WT LL-37/poly(I:C) enhancement of IL-6 production.
LL-37 uses the Formyl peptide receptor-like 1 (FPRL-1) receptor to deliver nucleic acids into endosomes, where activation of the Toll-like receptors that recognize nucleic acids takes place (Singh et al., 2014). We sought to determine whether the LL-37 orthologs from other mammals could also use the FPRL-1 in the human BEAS-2B cells to deliver dsRNA. BEAS-2B cells were treated with poly(I:C) along with the peptides and the peptides from pig, sheep, rabbit, and mouse had reduced ability to use the FPRL-1 to activate IL-6 production.

[10] = tested on: LL-37 enhancement of TLR3 signaling; assay: Antagonism of LL-37/poly(I:C)-enhanced IL-6 production in BEAS-2B cells; assay type: cell-based, human
Experimental: as §1
We examined whether LL-29 could affect the enhancement of TLR3 signaling by WT LL-37/poly(I:C). An increasing amount of LL-29 along with a constant amount of LL-37/poly(I:C) was used to assess IL-6 production in BEAS-2B cells. […] That is, LL-29 abrogated LL-37's ability to enhance TLR3 signaling. That is, LL-29 is an example of a peptide antagonist of LL-37 function.

[11] = tested on: TLR3; assay: Confocal microscopy, co-localization with TLR3 in BEAS-2B cells; assay type: cell-based, human
Experimental: Cells were grown on poly-L-lysine coated coverslips to 60% confluency. After 1 h incubation with fluorescently-labeled peptides in the absence or presence of poly(I:C), the cells were washed with PBS and fixed with 4% paraformaldehyde for 15 min at room temperature. The cells were again washed with PBS and mounted on glass slides with anti-fade mounting medium and DAPI (Life Technology), then dried overnight in the dark. Micrographs were acquired with a Leica TCS SP5 confocal inverted-base microscope with a 63× oil objective. Images were analyzed by Leica LAS AF and Image J software. Colocalization of fluorophores was quantified using the Image J plug-in tool JACoP (16).
We examined whether it could prevent the trafficking of LL-37/poly(I:C) to endosomes that harbor TLR3. Confocal microscopy was used to examine the effect of LL-29 on the colocalization of LL-37/poly(I:C) with TLR3 in BEAS-2B cells.

[12] = tested on: poly(I:C); assay: Fluorescence polarization, peptide binding to poly(I:C)
Experimental: as §3
LL-37 accompanies dsRNA to endosomes containing TLR3. However, it is unknown whether LL-37 will release the dsRNA in endosomes. Johansson et al. (1998) have previously determined that a neutral pH is required for the activity of LL-37. We seek to determine whether LL-37 binding to dsRNA can be affected by pH.

CC[C@H](C)[C@H](NC(=O)[C@H](CCCCN)NC(=O)[C@H](CCC(=O)O)NC(=O)[C@H](CCCCN)NC(=O)[C@H](CO)NC(=O)[C@H](CCCCN)NC(=O)[C@H](CCCNC(=N)N)NC(=O)[C@H](Cc1ccccc1)NC(=O)[C@H](Cc1ccccc1)NC(=O)[C@H](CC(=O)O)NC(=O)CNC(=O)[C@H](CC(C)C)NC(=O)[C@@H](N)CC(C)C)C(=O)NCC(=O)N[C@@H](CCCCN)C(=O)N[C@@H](CCC(=O)O)C(=O)N[C@@H](Cc1ccccc1)C(=O)N[C@@H](CCCCN)C(=O)N[C@@H](CCCNC(=N)N)C(=O)N[C@H](C(=O)N[C@H](C(=O)N[C@@H](CCC(N)=O)C(=O)N[C@@H](CCCNC(=N)N)C(=O)N[C@H](C(=O)N[C@@H](CCCCN)C(=O)N[C@@H](CC(=O)O)C(=O)N[C@@H](Cc1ccccc1)C(=O)N[C@@H](CC(C)C)C(=O)N[C@@H](CCCNC(=N)N)C(=O)N[C@@H](CC(N)=O)C(=O)N[C@@H](CC(C)C)C(=O)N[C@H](C(=O)N1CCC[C@H]1C(=O)N[C@@H](CCCNC(=N)N)C(=O)N[C@H](C(=O)N[C@@H](CCC(=O)O)C(=O)N[C@@H](CO)C(=O)O)[C@@H](C)O)C(C)C)[C@@H](C)CC)C(C)C)[C@@H](C)CC [LL-37]
half-life [1]: ~60 min
half-life ([1]; cells or culture medium): ~60 min

CAP-18: LL-37 ortholog from rabbit, SEQ ID NO: 24 (GLRKRLRKFRNKIKEKLKKIGQKIQGLLPKLAPRTDY; (1)..(37) Rabbit CAP-18)
Enhancement of TLR3 signaling / poly(I:C)-induced IL-6, in words ([2]; BEAS-2B cells): failed to enhance signaling
Enhancement of IL-6 production / signaling by Reo S4, in words [3]: failed to enhance signaling
Induction of signaling by the ssDNA ligand for Toll-like receptor 9, in words [4]: failed to induce signaling

LLGDFFRKSKEKIGKEFKRIVQRIKDFLR ((1)..(29) LL29; listed as Homo sapiens) [LL-29]
IL-6 production (%) poly(I:C)-depend. ([2]; BEAS-2B cells induced with 130 ng/ml of poly(I:C), LL-37 100): 47 ± 3%
Interaction with fLL-37, in words [5]: interacted with fLL-37 to the same degree as LL-37; also recorded: comparable ability to interact with fLL-37
MIC assay result, peptide without antibiotic ([6]; peptide 10 μg/ml, antibiotic: None): growth
MIC (μg/ml) of Doxorubicin in the presence of peptide ([6]; peptide final conc. 10 μg/ml): ≤0.06 µg/mL
MIC (μg/ml) of Kanamycin in the presence of peptide ([6]; peptide final conc. 10 μg/ml): ≤0.5 µg/mL
MIC (μg/ml) of Trimethoprim in the presence of peptide ([6]; peptide final conc. 10 μg/ml): ≤0.06 µg/mL
Improvement of the MIC of antibiotics by peptide ([6]; with doxorubicin, kanamycin, trimethoprim): at least 4 fold
Hydrodynamic radius (nm) pH 5.8 ([7]; 1.0 μM peptide, phosphate buffer pH 5.8): 8 nm
Hydrodynamic radius (nm) pH 7.4 ([7]; 1.0 μM peptide, phosphate buffer pH 7.4): 1106 nm
pH-dependent dissociation of peptide particles, in words ([7]; acidification of phosphate buffer): readily dissociated into nanometer-sized particles; also recorded: dissociated as a function of pH
Suppression of TLR4 signaling / LPS-induced IL-6, in words ([8]; BEAS-2B cells): retained the ability to suppress TLR4 signaling in response to LPS
IL-6 production (%) LPS-depend. ([8]; BEAS-2B cells induced with 1.0 μg/ml of LPS, LL-37 100): 143 ± 18%
IL-6 production in response to LPS, % of the control level without either of the two peptides ([8]; four molar excess of LL-29 to LL-37, BEAS-2B cells): 64%
IL-6 production, peptide with poly(I:C), in words ([9]; knockdown of either FPRL-1 or EGFR): did not enhance IL-6 production
IL-6 production, peptide added along with LL-37 and poly(I:C), in words ([9]; siRNA to FPRL-1 or nonspecific control): resulted in a reduction in IL-6 levels
IL-6 production with LL-37/poly(I:C) at four molar excess of peptide, in words ([10]; four molar excess of LL-29 relative to LL-37): comparable to the level observed in the absence of LL-37
Antagonism of LL-37 enhancement of TLR3 signaling (IL-6), in words ([10]; peptide added with LL-37/poly(I:C), BEAS-2B cells): reduced the enhancement of TLR3 signaling by LL-37 in a concentration-dependent manner
Effect of added peptide on co-localization of fLL-37 and TLR3, in words ([11]; added to fLL-37 and poly(I:C)): reduced the co-localization between fLL-37 and TLR3

fLL-37: 5′ carboxyfluorescein coupled to the N-terminus of LL-37 [reference compound]
Binding to poly(I:C)/dsRNA in fluorescent polarization assay, in words [12]: polarization increased as a function of poly(I:C) concentration
Co-localization of peptide with TLR3, in words ([11]; with poly(I:C)): found to colocalize with TLR3
